Reference: the NIST ThermoML archive (doi:10.1016/j.jct.2014.05.008)
± gives the expanded uncertainty stated by the source.

Conditions: 101.33 kPa, Liquid; for mass density: Vibrating tube method; for thermal conductivity: hot wire

CCCC[N+]1(C)CCCC1.N#CN=C=[N-] [1-butyl-1-methylpyrrolidinium dicyanamide]
Conditions | mass density [kg/m3] | thermal conductivity [W/m/K]
293.2 K | 1018.3 ± 0.9 | –
293.5 K | – | 0.155 ± 0.011
303.2 K | 1011.8 ± 0.9 | 0.155 ± 0.011
313.2 K | 1006.1 ± 0.9 | –
313.3 K | – | 0.153 ± 0.011
323.2 K | 1000.6 ± 0.8 | –
323.3 K | – | 0.151 ± 0.011
333.2 K | 995.6 ± 0.8 | 0.147 ± 0.011
343.2 K | 991.3 ± 0.8 | –
343.4 K | – | 0.142 ± 0.02

CCCCn1cc[n+](C)c1.N#CN=C=[N-] [1-butyl-3-methylimidazolium dicyanamide]
Conditions | mass density [kg/m3] | thermal conductivity [W/m/K]
293.2 K | 1064.5 ± 1 | –
293.6 K | – | 0.167 ± 0.011
303.2 K | 1057.5 ± 1 | –
303.3 K | – | 0.166 ± 0.011
313.2 K | 1051 ± 1 | –
313.4 K | – | 0.163 ± 0.011
323.2 K | 1045.1 ± 0.9 | –
323.5 K | – | 0.163 ± 0.011
333.2 K | 1040.6 ± 0.9 | –
333.7 K | – | 0.153 ± 0.011
343.2 K | 1035.7 ± 0.9 | –
344.2 K | – | 0.15 ± 0.011

CCn1cc[n+](C)c1.N#CN=C=[N-] [1-ethyl-3-methylimidazolium dicyanamide]
Conditions | mass density [kg/m3] | thermal conductivity [W/m/K]
293.2 K | 1107.5 ± 1.1 | –
293.4 K | – | 0.183 ± 0.011
303.2 K | 1100.4 ± 1.1 | –
303.3 K | – | 0.179 ± 0.011
313.1 K | – | 0.178 ± 0.02
313.2 K | 1093.5 ± 1 | –
323 K | – | 0.181 ± 0.02
323.2 K | 1087 ± 1 | –
333.2 K | 1081 ± 1 | 0.17 ± 0.02
343.2 K | 1076.1 ± 1 | –
343.4 K | – | 0.165 ± 0.02
